In brackets after ≈: the same amount, converted by molar mass.
Tests used:
[1] = system: MT4; assay: In vitro antiviral activity against HIV-1 in MT-4 Cell; format: functional; conditions: Homo sapiens; for EC50: read-out: ED50 (the source's name); for IC50: read-out: ID50 (the source's name)
[2] = Therapeutic index (TI) was determined by dividing the ID50 by the ED50; format: cell-based; conditions: human, MT4 cells; read-out: TI

Compound	EC50 [1] [µg/mL]	IC50 [1] [µg/mL]	selectivity ratio [2]
Nc1nc(O)c2ncn(C3C=CC(CO)C3CO)c2n1 (stereo not given)	> 100	> 100	–
Nc1ccn([C@H]2CC[C@@H](CO)O2)c(=O)n1 [ZALCITABINE]	0.011 (≈ 0.0521 µM)	27 (≈ 128 µM)	2450

Reference: ChEMBL document CHEMBL1126245, “Synthesis and anti-HIV activity of 9-[c-4,t-5-bis(hydroxymethyl)cyclopent-2-en-r-1-yl]-9H-adenine” (J Med Chem, 1992)
